In patent publication US11013696B2, “Lipids and lipid compositions for the delivery of active agents” (Novartis AG, priority 2013, dated 2021):
Structures can show the parent of a compound that is named as a salt.

Experiment: siRNA encapsulation in lipid nanoparticles (SYBR Gold)
Format: physicochemical
Conditions: Table 2; FVII siRNA in LNP with the cationic lipid
Procedure: The lipid nanoparticles (LNPs) were formed by mixing equal volumes of lipids dissolved in alcohol with siRNA dissolved in a citrate buffer by an impinging jet process. The lipid solution contains a cationic lipid compound of the invention, a helper lipid (cholesterol), an optional neutral lipid (DSPC) and a PEG (PEG) lipid at a concentration of 8-16 mg/mL with a target of 12 mg/mL in an alcohol. The siRNA to total lipid ratio is approximately 0.05 (wt/wt). Where a LNP formulation contains four lipid components, the molar ratios of the lipids ranges from 20 to 70 mole percent for the cationic lipid with a target of 40-60, the mole percent of helper lipid ranges from 20 to 70 with a target of 30 to 50, the mole percent of neutral lipid ranges from 0-30, the mole percent of PEG lipid has a range from 1 to 6 with a target of 2 to 5. The concentration of siRNA solution ranges from 0.7 to 1.0 mg/mL with a target of 0.8 to 0.9 mg/mL in a sodium citrate: sodium chloride buffer pH 4-6, with a target of 4.5-5.5. The LNPs are formed by mixing equal volumes of lipid solution in ethanol with siRNA dissolved in a citrate buffer by an impinging jet process through a mixing device with ID ranging from 0.25 to 2.0 mm at a flow rate from 10 to 640 mL/min. The mixed LNP solution is held at room temperature for 0-24 hrs prior to a dilution step. The solution is then concentrated and diafiltered with suitable buffer by ultrafiltration or dialysis process using membranes with a MW cutoff from 30 to 500 KD. The final product is sterile filtered and stored at 4° C.
The lipid nanoparticles (LNPs) were formed by mixing equal volumes of lipids dissolved in alcohol with siRNA dissolved in a citrate buffer by an impinging jet process. The lipid solution contains a cationic lipid compound of the invention, a helper lipid (cholesterol), an optional neutral lipid (DSPC) and a stealth lipid (5010, S024, S027, or S031) at a concentration of 8-16 mg/mL with a target of 12 mg/mL in an alcohol. The siRNA to total lipid ratio is approximately 0.05 (wt/wt). Where a LNP formulation contains four lipid components, the molar ratios of the lipids ranges from 20 to 70 mole percent for the cationic lipid with a target of 40-60, the mole percent of helper lipid ranges from 20 to 70 with a target of 30 to 50, the mole percent of neutral lipid ranges from 0-30, the mole percent of PEG lipid has a range from 1 to 6 with a target of 2 to 5. The concentration of siRNA solution ranges from 0.7 to 1.0 mg/mL with a target of 0.8 to 0.9 mg/mL in a sodium citrate: sodium chloride buffer pH 4-6, with a target of 4.5-5.5. The LNPs are formed by mixing equal volumes of lipid solution in ethanol with siRNA dissolved in a citrate buffer by an impinging jet process through a mixing device with ID ranging from 0.25 to 2.0 mm at a flow rate from 10 to 640 mL/min. The mixed LNP solution is held at room temperature for 0-24 hrs prior to a dilution step. The solution is then concentrated and diafiltered with suitable buffer by ultrafiltration process using membranes with a MW cutoff from 30 to 500 KD. The final product is sterile filtered and stored at 4° C.
SYBR Gold flourescence reagent is used for the determination of siRNA encapsulation in the DLP's. DLP's with and without triton x-100 are used to determine the free siRNA and total siRNA amounts. DLP's samples with and without triton X-100 were excited at 485 nm and flourescence emission is measured at 530 nm. Encapsulation efficiency is calculated based on the following formula: Encapsulation efficiency:[([…])/(total siRNA concentration)]×100% Encapsulation Data

Q: With CCCCCCCCCCCCC(CCOC(=O)CCCC(CCCCCCC)CCCCCCC)OC(=O)OCCCN(C)C (centres unmarked) [Example 29, 3-(((3-(dimethylamino)propoxy)carbonyl)oxy)pentadecyl 5-heptyldodecanoate] as the molecule, how does the “% encapsulation siRNA FVII” value read?
A: 86.1%

Q: For CCCCC/C=C\C/C=C\CCCCCCCC(=O)OCCC(CCCCCCCCCCCC)OC(=O)OCCCN(C)C (centres unmarked) [Example 43, (9Z,12Z)-3-(((3-(dimethylamino)propoxy)carbonyl)oxy)pentadecyl octadeca-9,12-dienoate], which “% encapsulation siRNA FVII” value is on record?
A: 86.8%

Q: Which “% encapsulation siRNA FVII” value does the source give for CCCCCCCCCCCCC(COC(=O)CCC(OCC(CC)CCCC)OCC(CC)CCCC)OC(=O)OCCCN(CC)CC (centres unmarked) [Example 48, 2-(((3-(diethylamino)propoxy)carbonyl)oxy)tetradecyl 4,4-bis((2-ethylhexyl)oxy)butanoate] here?
A: 89.3%

Q: Which “% encapsulation siRNA FVII” value does the source give for CCCCC/C=C\C/C=C\CCCCCCCCC(CCOC(=O)CCCCCCC/C=C\C/C=C\CCCCC)OC(=O)CCN(C)C (centres unmarked) [Example 49, (9Z,12Z)-(12Z,15Z)-3-((3-(dimethylamino)propanoyl)oxy)henicosa-12,15-dien-1-yl octadeca-9,12-dienoate] here?
A: 88.4%

Q: Which “% encapsulation siRNA FVII” value does the source give for CCCCC/C=C\C/C=C\CCCCCCCCC(CCOC(=O)CC(CCCCCCCC)CCCCCCCC)OC(=O)CCCN(C)C (centres unmarked) [Example 50, (12Z,15Z)-3-((4-(dimethylamino)butanoyl)oxy)henicosa-12,15-dien-1-yl 3-octylundecanoate, formate salt] here?
A: 85.3%

Q: Which “% encapsulation siRNA FVII” value does the source give for CCCCC/C=C\C/C=C\CCCCCCCCC(CCOC(=O)CCCC(CCCCCCC)CCCCCCC)OC(=O)CCCN(C)C (centres unmarked) [Example 51, (12Z,15Z)-3-((4-(dimethylamino)butanoyl)oxy)henicosa-12,15-dien-1-yl 5-heptyldodecanoate] here?
A: 89.2%

Q: For CCCCC/C=C\C/C=C\CCCCCCCCC(CCOC(=O)CCCCCC(CCCCCC)CCCCCC)OC(=O)CCCN(C)C (centres unmarked) [Example 52, (12Z,15Z)-3-((4-(dimethylamino)butanoyl)oxy)henicosa-12,15-dien-1-yl 7-hexyltridecanoate], which “% encapsulation siRNA FVII” value is on record?
A: 84.6%

Q: With CCCCC/C=C\C/C=C\CCCCCCCCC(CCOC(=O)CCCCCCCC(CCCCC)CCCCC)OC(=O)CCCN(C)C (centres unmarked) [Example 53, (12Z,15Z)-3-((4-(dimethylamino)butanoyl)oxy)henicosa-12,15-dien-1-yl 9-pentyltetradecanoate] as the molecule, how does the “% encapsulation siRNA FVII” value read?
A: 85.6%

Q: For CCCCC/C=C\C/C=C\CCCCCCCCOC(=O)OCCC(CCCCCCCC/C=C\C/C=C\CCCCC)OC(=O)CCN(C)C (centres unmarked) [Example 54, (12Z,15Z)-1-((((9Z,12Z)-octadeca-9,12-dien-1-yloxy)carbonyl)oxy)henicosa-12,15-dien-3-yl 3-(dimethylamino)propanoate], which “% encapsulation siRNA FVII” value is on record?
A: 88.6%

Q: For CCCCC/C=C\C/C=C\CCCCCCCCC(COCCOC(=O)CCCCCCC/C=C\C/C=C\CCCCC)OC(=O)CCN(C)C (centres unmarked) [Example 59, (9Z,12Z)-2-(((11Z,14Z)-2-((3-(dimethylamino)propanoyl)oxy)icosa-11,14-dien-1-yl)oxy)ethyl octadeca-9,12-dienoate], which “% encapsulation siRNA FVII” value is on record?
A: 90.2%

Q: Which “% encapsulation siRNA FVII” value does the source give for CCCCC/C=C\C/C=C\CCCCCCCC(=O)OCCC(CCCCCCCCCCOC(=O)CCCCCCC)OC(=O)OCCCN(C)C (centres unmarked) [Example 60, (9Z,12Z)-3-(((3-(dimethylamino)propoxy)carbonyl)oxy)-13-(octanoyloxy)tridecyl octadeca-9,12-dienoate] here?
A: 82.4%

Q: With CCCCCCCCC(CCCCCCCC)CC(=O)OCCC(CCCCCCCCCCOC(=O)CCCCCCC)OC(=O)OCCCN(C)C (centres unmarked) [Example 61, 3-(((3-(dimethylamino)propoxy)carbonyl)oxy)-13-(octanoyloxy)tridecyl 3-octylundecanoate] as the molecule, how does the “% encapsulation siRNA FVII” value read?
A: 85.5%

Q: With CCCCCCCC(CCCCCCC)CCCC(=O)OCCC(CCCCCCCCCCO)OC(=O)OCCCN(C)C (centres unmarked) [Example 62, 3-(((3-(dimethylamino)propoxy)carbonyl)oxy)-13-hydroxytridecyl 5-heptyldodecanoate] as the molecule, how does the “% encapsulation siRNA FVII” value read?
A: 75.2%

Q: For CCCCCCCC(=O)OCCCCCCCCCCC(CCOC(=O)CCCC(CCCCCCC)CCCCCCC)OC(=O)OCCCN(C)C (centres unmarked) [Example 63, 3-(((3-(dimethylamino)propoxy)carbonyl)oxy)-13-(octanoyloxy)tridecyl 5-heptyldodecanoate], which “% encapsulation siRNA FVII” value is on record?
A: 85.6%

Q: For CCCCCC(CCCCC)CCCCCCCC(=O)OCCC(CCCCCCCCCCO)OC(=O)OCCCN(C)C (centres unmarked) [Example 65, 3-(((3-(dimethylamino)propoxy)carbonyl)oxy)-13-hydroxytridecyl 9-pentyltetradecanoate], which “% encapsulation siRNA FVII” value is on record?
A: 39.5%

Q: For CCCCCCCC(=O)OCCCCCCCCCCC(CCOC(=O)CCCCCCCC(CCCCC)CCCCC)OC(=O)OCCCN(C)C (centres unmarked) [Example 66, 3-(((3-(dimethylamino)propoxy)carbonyl)oxy)-13-(octanoyloxy)tridecyl 9-pentyltetradecanoate], which “% encapsulation siRNA FVII” value is on record?
A: 83.4%

Q: For CCCCCCCCC(CCCCCCCC)CC(CCCCOC(=O)CCCCCCC)OC(=O)OCCCN(C)C (centres unmarked) [Example 71, 5-(((3-(dimethylamino)propoxy)carbonyl)oxy)-7-octylpentadecyl octanoate], which “% encapsulation siRNA FVII” value is on record?
A: 86.7%

Q: For CCCCC/C=C\C/C=C\CCCCCCCC(=O)OCCCCC(CC(CCCCCCCC)CCCCCCCC)OC(=O)OCCCN(C)C (centres unmarked) [Example 72, (9Z,12Z)-5-(((3-(dimethylamino)propoxy)carbonyl)oxy)-7-octylpentadecyl octadeca-9,12-dienoate], which “% encapsulation siRNA FVII” value is on record?
A: 62.5%

Q: Which “% encapsulation siRNA FVII” value does the source give for CCCCC/C=C\C/C=C\CCCCCCCC(=O)OCC(COC(=O)CCCCCCC/C=C\C/C=C\CCCCC)OC(=O)CCC(CCCCCCCCCCCC)OC(=O)OCCCN(CC)CC (centres unmarked) [Example 81, (9Z,9′Z,12Z,12′Z)-2-((4-(((3-(diethylamino)propoxy)carbonyl)oxy)hexadecanoyl)oxy)propane-1,3-diyl bis(octadeca-9,12-dienoate)] here?
A: 48.8%

Q: With CCCCCCCCCCCCCC(=O)OCC(COC(=O)CCCCCCCCCCCCC)OC(=O)CCC(CCCCCCCCCCCC)OC(=O)OCCCN(C)C (centres unmarked) [Example 85, 2-((4-(((3-(dimethylamino)propoxy)carbonyl)oxy)hexadecanoyl)oxy)propane-1,3-diyl ditetradecanoate] as the molecule, how does the “% encapsulation siRNA FVII” value read?
A: 85.7%

Q: For CCCCCCCCCCCCC(CCC(=O)OC(COC(=O)CCCCCCCCCCC)COC(=O)CCCCCCCCCCC)OC(=O)OCCCN(C)C (centres unmarked) [Example 87, 2-((4-(((3-(dimethylamino)propoxy)carbonyl)oxy)hexadecanoyl)oxy)propane-1,3-diyl didodecanoate], which “% encapsulation siRNA FVII” value is on record?
A: 77.5%

Q: Which “% encapsulation siRNA FVII” value does the source give for CCCCCCCCCCCCC(CCC(=O)OC(COC(=O)CCCCCCCCC)COC(=O)CCCCCCCCC)OC(=O)OCCCN(CC)CC (centres unmarked) [Example 90, 2-((4-(((3-(diethylamino)propoxy)carbonyl)oxy)hexadecanoyl)oxy)propane-1,3-diyl bis(decanoate)] here?
A: 91.4%

Q: For CCCCC/C=C\C/C=C\CCCCCCCCC(CCC(=O)OC(COC(=O)CCCCCCC)COC(=O)CCCCCCC)OC(=O)OCCCN(CC)CC (centres unmarked) [Example 95, 2-(((13Z,16Z)-4-(((3-(diethylamino)propoxy)carbonyl)oxy)docosa-13,16-dienoyl)oxy)propane-1,3-diyl dioctanoate], which “% encapsulation siRNA FVII” value is on record?
A: 86.9%
